Assay results as given in patent US20260317340A1, “COMPOUNDS, COMPOSITIONS, AND METHODS OF TREATING DISORDERS” (Chengdu Anticancer Bioscience, Ltd., priority 2023, published 2026).
Where two headings read alike, the source gives them in different places.

Assays:
[1] = tested on: RPE-Neo or RPE-MYC or RPE-MYC expressing an EGFP-Histone 2B fusion protein; experiment: Phenotypic screening assay: arrest in mitosis, change in DNA content (polyploidy), cell death; format: cell-based; settings: 20 nM to 20 μM, 24, 48 or 72 hours
Procedure: (§1) Human cancer cell lines were obtained from ATCC and cultured in DMEM (Gibco, Cleveland, TN, USA) supplemented with 5% fetal bovine serum (Gibco), penicillin (100 U/mL)-streptomycin (100 μg/mL) (Gibco, Cat. No. 15140-122), 2 mM L-glutamine (Gibco, 200 mM solution, Cat. No. 25030081), and 1 mM sodium pyruvate (Gibco, 100 mM solution, Cat. No. 11360070) at 37° C. in a humidified incubator that was maintained at 5% CO2.
Screening was conducted as described before (Li et al. 2019). Briefly, RPE-Neo or RPE-MYC or RPE-MYC expressing an EGFP-Histone 2B fusion protein were passaged as batches of 96-well plates, 18-24 hours before exposure to the chemical compounds of the present disclosure at concentrations from 20 nM to 20 μM. At 24, 48 or 72 hours after initiation of treatment, cells were analyzed for either an arrest in mitosis or a change in DNA content by GE IN-Cell Analyzer 2000. MTT assays of cellular proliferation were performed as previously described (Li et al. 2019).
(§2) As set forth in table 2 below, an values of greater than or equal to 1 nM and less than or equal to 1.0 μM is marked “A”; a value greater than 1.00 μM and less than or equal to 10.0 μM is marked “B”; a value greater than 10.0 μM and less than or equal to 30.0 μM is marked “C”; and a value greater than 30.0 μM and less than 1000 μM is marked “D.”

RPE-Neo or RPE-MYC cells = experiment: MTT assay of cellular proliferation (proliferative arrest); format: cell-based; settings: read-out: Min. Effective conc. for Proliferative arrest (>50%)
Procedure: as §1
Screening was conducted as described before (Li et al. 2019). Briefly, RPE-Neo or RPE-MYC or RPE-MYC expressing an EGFP-Histone 2B fusion protein were passaged as batches of 96-well plates, 18-24 hours before exposure to the chemical compounds of the present disclosure at concentrations from 20 nM to 20 μM. At 24, 48 or 72 hours after initiation of treatment, cells were analyzed for either an arrest in mitosis or a change in DNA content by GE IN-Cell Analyzer 2000. MTT assays of cellular proliferation were performed as previously described (Li et al. 2019). […]
as §2

[2] = read-out: Min. Effective conc. for Along with Cell Death
[3] = ≥5%, read-out: Min. Effective conc. for Mitotic Arrest (≥5%)
[4] = ≥5%, read-out: Min. Effective conc. for Polyploidy (≥5%)

Measured: minimal effective concentration

COc1ccc(CN2C(=O)CC(c3ncc(C)o3)=Cc3ccc(-c4cccnc4)cc32)cc1 [Compound 39, 1-(4-methoxybenzyl)-4-(5-methyloxazol-2-yl)-8-(pyridin-3-yl)-1,3-dihydro-2H-benzo[b]azepin-2-one]
0.001 to 1 µM: [1]; [2] | [1]; [3] | [1]; [4] | RPE-Neo or RPE-MYC cells

COc1ccc(CN2C(=O)CC(c3ncc(C)o3)=Cc3ccc(-c4ccncc4)cc32)cc1 [Compound 40, 1-(4-methoxybenzyl)-4-(5-methyloxazol-2-yl)-8-(pyridin-4-yl)-1,3-dihydro-2H-benzo[b]azepin-2-one]
0.001 to 1 µM: [1]; [2] | [1]; [3] | [1]; [4] | RPE-Neo or RPE-MYC cells

COc1ccc(CN2C(=O)CC(c3ncc(C)o3)=Cc3ccc(-c4ccc(F)nc4)cc32)cc1 [Compound 41, 8-(6-fluoropyridin-3-yl)-1-(4-methoxybenzyl)-4-(5-methyloxazol-2-yl)-1,3-dihydro-2H-benzo[b]azepin-2-one]
0.001 to 1 µM: [1]; [2] | [1]; [3] | [1]; [4] | RPE-Neo or RPE-MYC cells

COc1ccc(CN2C(=O)CC(c3ncc(C)o3)=Cc3ccc(-c4ccc(C5CC5)nc4)cc32)cc1 [Compound 43, 8-(6-cyclopropylpyridin-3-yl)-1-(4-methoxybenzyl)-4-(5-methyloxazol-2-yl)-1,3-dihydro-2H-benzo[b]azepin-2-one]
0.001 to 1 µM: [1]; [2] | [1]; [3] | [1]; [4] | RPE-Neo or RPE-MYC cells

COc1ccc(CN2C(=O)CC(c3ncc(C)o3)=Cc3ccc(-c4ccc(OC)nc4)cc32)cc1 [Compound 44, 1-(4-methoxybenzyl)-8-(6-methoxypyridin-3-yl)-4-(5-methyloxazol-2-yl)-1,3-dihydro-2H-benzo[b]azepin-2-one]
0.001 to 1 µM: [1]; [2] | [1]; [3] | [1]; [4] | RPE-Neo or RPE-MYC cells

COc1ccc(CN2C(=O)CC(c3ncc(C)o3)=Cc3ccc(-c4cncnc4)cc32)cc1 [Compound 46, 1-(4-methoxybenzyl)-4-(5-methyloxazol-2-yl)-8-(pyrimidin-5-yl)-1,3-dihydro-2H-benzo[b]azepin-2-one]
0.001 to 1 µM: [1]; [2] | [1]; [3] | [1]; [4] | RPE-Neo or RPE-MYC cells

COc1ccc(CN2C(=O)CC(c3ncc(C)o3)=Cc3ccc(-c4cnc(N)nc4)cc32)cc1 [Compound 47, 8-(2-aminopyrimidin-5-yl)-1-(4-methoxybenzyl)-4-(5-methyloxazol-2-yl)-1,3-dihydro-2H-benzo[b]azepin-2-one]
0.001 to 1 µM: [1]; [2] | [1]; [3] | [1]; [4] | RPE-Neo or RPE-MYC cells

COc1ccc(CN2C(=O)CC(c3ncc(C)o3)=Cc3ccc(-c4cnn(C5CCOC5)c4)cc32)cc1 (stereo not drawn) [Compound 48, 1-(4-methoxybenzyl)-4-(5-methyloxazol-2-yl)-8-(1-(tetrahydrofuran-3-yl)-1H-pyrazol-4-yl)-1,3-dihydro-2H-benzo[b]azepin-2-one]
0.001 to 1 µM: [1]; [2] | [1]; [3] | [1]; [4] | RPE-Neo or RPE-MYC cells

COc1ccc(CN2C(=O)CC(c3ncc(C)o3)=Cc3ccc(-c4cnn(C5CCOCC5)c4)cc32)cc1 [Compound 49, 1-(4-methoxybenzyl)-4-(5-methyloxazol-2-yl)-8-(1-(tetrahydro-2H-pyran-4-yl)-1H-pyrazol-4-yl)-1,3-dihydro-2H-benzo[b]azepin-2-one]
0.001 to 1 µM: [1]; [2] | [1]; [3] | [1]; [4] | RPE-Neo or RPE-MYC cells

COc1ccc(CN2C(=O)CC(c3ncc(C)o3)=Cc3ccc(-c4cnn(CC(N)=O)c4)cc32)cc1 [Compound 50, 2-(4-(1-(4-methoxybenzyl)-4-(5-methyloxazol-2-yl)-2-oxo-2,3-dihydro-1H-benzo[b]azepin-8-yl)-1H-pyrazol-1-yl)acetamide]
0.001 to 1 µM: [1]; [2] | [1]; [3] | [1]; [4] | RPE-Neo or RPE-MYC cells

COc1ccc(CN2C(=O)CC(c3nnc(C4CC4)o3)=Cc3ccc(-c4cnn(CCN5CCOCC5)c4)cc32)cc1 [Compound 52, 4-(5-cyclopropyl-1,3,4-oxadiazol-2-yl)-1-(4-methoxybenzyl)-8-(1-(2-morpholinoethyl)-1H-pyrazol-4-yl)-1,3-dihydro-2H-benzo[b]azepin-2-one]
0.001 to 1 µM: [1]; [2] | [1]; [3] | [1]; [4] | RPE-Neo or RPE-MYC cells

COc1ccc(CN2C(=O)CC(c3ncc(C)o3)=Cc3ccc(-c4ccnc(N)c4)cc32)cc1 [Compound 55, 8-(2-Aminopyridin-4-yl)-1-(4-methoxybenzyl)-4-(5-methyloxazol-2-yl)-1,3-dihydro-2H-benzo[b]azepin-2-one]
0.001 to 1 µM: [1]; [2] | [1]; [3] | [1]; [4] | RPE-Neo or RPE-MYC cells

COc1ccc(CN2C(=O)CC(c3ncc(C)o3)=Cc3ccc(-c4cnn(C(C)(C)CO)c4)cc32)cc1 [Compound 56, 8-(1-(1-hydroxy-2-methylpropan-2-yl)-1H-pyrazol-4-yl)-1-(4-methoxybenzyl)-4-(5-methyloxazol-2-yl)-1,3-dihydro-2H-benzo[b]azepin-2-one]
0.001 to 1 µM: [1]; [2] | [1]; [3] | [1]; [4] | RPE-Neo or RPE-MYC cells

CCOC(C)n1cc(-c2ccc3c(c2)N(Cc2ccc(OC)cc2)C(=O)CC(c2ncc(C)o2)=C3)cn1 (stereo not drawn) [Compound 58, 8-(1-(1-Ethoxyethyl)-1H-pyrazol-4-yl)-1-(4-methoxybenzyl)-4-(5-methyloxazol-2-yl)-1,3-dihydro-2H-benzo[b]azepin-2-one]
0.001 to 1 µM: [1]; [2] | [1]; [3] | [1]; [4] | RPE-Neo or RPE-MYC cells

COc1ccc(CN2C(=O)CC(c3ncc(C)o3)=Cc3ccc(-c4cnn(CCC#N)c4)cc32)cc1 [Compound 59, 3-(4-(1-(4-Methoxybenzyl)-4-(5-methyloxazol-2-yl)-2-oxo-2,3-dihydro-1H-benzo[b]azepin-8-yl)-1H-pyrazol-1-yl)propanenitrile]
0.001 to 1 µM: [1]; [2] | [1]; [3] | [1]; [4] | RPE-Neo or RPE-MYC cells
